Assay results as given in BindingDB's records for doi:10.1016/S0960-894X(01)80832-5 (1994).
pIC50: −log10 of the molar value.

Legend:
[1] = biological target: Gastrin/cholecystokinin type B receptor (Cavia porcellus); experiment: Inhibitory activity against cholecystokinin-B (CCK-B) receptor in cortex of male hartley guinea pig.
[2] = biological target: Gastrin/cholecystokinin type B receptor (Cavia porcellus); experiment: as above; remark: listed apart in the source

SMILES	pIC50 [1]	pIC50 [2]
Cc1cccc(NC(=O)N[C@@H]2C[C@H](c3ccccc3)C[C@H](c3ccc(F)cc3)N(CC(=O)NC(C)(C)C)C2=O)c1 [N-tert-Butyl-2-[(3R,5S,7R)-7-(4-fluoro-phenyl)-2-oxo-5-phenyl-3-(3-m-tolyl-ureido)-azepan-1-yl]-acetamide]	6.69	–
Cc1cccc(NC(=O)N[C@@H]2C[C@H](c3ccccc3)C[C@H](c3cccc(F)c3)N(CC(=O)NC(C)(C)C)C2=O)c1 [N-tert-Butyl-2-[(3R,5S,7R)-7-(3-fluoro-phenyl)-2-oxo-5-phenyl-3-(3-m-tolyl-ureido)-azepan-1-yl]-acetamide]	7.51	–
COc1ccc(NC(=O)N[C@@H]2C[C@H](c3ccccc3C)C[C@H](c3ccccc3)N(CC(=O)NC(C)(C)C)C2=O)cc1 [N-tert-Butyl-2-{(3R,5S,7R)-3-[3-(4-methoxy-phenyl)-ureido]-2-oxo-7-phenyl-5-o-tolyl-azepan-1-yl}-acetamide]	7.06	–
Cc1cccc(NC(=O)N[C@@H]2C[C@H](c3ccc(F)cc3)C[C@H](c3ccccc3)N(CC(=O)NC(C)(C)C)C2=O)c1 [N-tert-Butyl-2-[(3R,5S,7R)-5-(4-fluoro-phenyl)-2-oxo-7-phenyl-3-(3-m-tolyl-ureido)-azepan-1-yl]-acetamide]	7.19	–
COc1ccccc1[C@@H]1C[C@H](c2ccccc2)N(CC(=O)NC(C)(C)C)C(=O)[C@H](NC(=O)Nc2cccc(C)c2)C1 [N-tert-Butyl-2-[(3R,5S,7R)-5-(2-methoxy-phenyl)-2-oxo-7-phenyl-3-(3-m-tolyl-ureido)-azepan-1-yl]-acetamide]	7.55	–
Cc1ccc(NC(=O)CN2C(=O)[C@H](NC(=O)Nc3cccc(C)c3)C[C@H](c3ccccc3C)C[C@@H]2c2ccccc2)cc1 [2-[(3R,5S,7R)-2-Oxo-7-phenyl-5-o-tolyl-3-(3-m-tolyl-ureido)-azepan-1-yl]-N-p-tolyl-acetamide]	7.40	–
Cc1ccccc1[C@@H]1C[C@H](c2ccccc2)N(CC(=O)NC(C)(C)C)C(=O)[C@H](NC(=O)Nc2ccc(Cl)cc2)C1 [N-tert-Butyl-2-{(3R,5S,7R)-3-[3-(4-chloro-phenyl)-ureido]-2-oxo-7-phenyl-5-o-tolyl-azepan-1-yl}-acetamide]	6.93	–
Cc1cccc(NC(=O)N[C@@H]2C[C@H](c3ccccc3)C[C@H](c3cccc(C)c3)N(CC(=O)NC(C)(C)C)C2=O)c1 [N-tert-Butyl-2-[(3R,5S,7R)-2-oxo-5-phenyl-7-m-tolyl-3-(3-m-tolyl-ureido)-azepan-1-yl]-acetamide]	6.85	–
Cc1ccc([C@H]2C[C@@H](c3ccccc3)C[C@@H](NC(=O)Nc3cccc(C)c3)C(=O)N2CC(=O)NC(C)(C)C)cc1 [N-tert-Butyl-2-[(3R,5S,7R)-2-oxo-5-phenyl-7-p-tolyl-3-(3-m-tolyl-ureido)-azepan-1-yl]-acetamide]	6.25	–
Cc1cccc(NC(=O)N[C@@H]2C[C@H](c3ccccc3C)C[C@H](c3ccccc3)N(CC(=O)Nc3ccccc3C)C2=O)c1 [2-[(3R,5S,7R)-2-Oxo-7-phenyl-5-o-tolyl-3-(3-m-tolyl-ureido)-azepan-1-yl]-N-o-tolyl-acetamide]	7.15	–
Cc1cccc(NC(=O)N[C@@H]2C[C@H](c3ccccc3C)C[C@H](c3ccccc3)N(CC(=O)NC(C(C)(C)C)C(C)(C)C)C2=O)c1 [N-(1-tert-Butyl-2,2-dimethyl-propyl)-2-[(3R,5S,7R)-2-oxo-7-phenyl-5-o-tolyl-3-(3-m-tolyl-ureido)-azepan-1-yl]-acetamide]	6.34	–
Cc1ccccc1[C@@H]1C[C@H](c2ccccc2)N(CC(=O)NC(C)(C)C)C(=O)[C@H](NC(=O)Nc2cccc(C(F)(F)F)c2)C1 [N-tert-Butyl-2-{(3R,5S,7R)-2-oxo-7-phenyl-5-o-tolyl-3-[3-(3-trifluoromethyl-phenyl)-ureido]-azepan-1-yl}-acetamide]	7.55	–
Cc1cccc(NC(=O)N[C@@H]2C[C@H](c3ccccc3C)C[C@H](c3ccccc3)N(CC(=O)Nc3ccccc3Cl)C2=O)c1 [N-(2-Chloro-phenyl)-2-[(3R,5S,7R)-2-oxo-7-phenyl-5-o-tolyl-3-(3-m-tolyl-ureido)-azepan-1-yl]-acetamide]	7.55	–
Cc1ccc([C@@H]2C[C@H](c3ccccc3)N(CC(=O)NC(C)(C)C)C(=O)[C@H](NC(=O)Nc3cccc(C)c3)C2)cc1 [N-tert-Butyl-2-[(3R,5S,7R)-2-oxo-7-phenyl-5-p-tolyl-3-(3-m-tolyl-ureido)-azepan-1-yl]-acetamide]	6.72	–

Further lines, results first:

pIC50 [1]	pIC50 [2]	SMILES
7.44	–	Cc1ccccc1[C@@H]1C[C@H](c2ccccc2)N(CC(=O)NC(C)(C)C)C(=O)[C@H](NC(=O)Nc2cccc(F)c2)C1 [N-tert-Butyl-2-{(3R,5S,7R)-3-[3-(3-fluoro-phenyl)-ureido]-2-oxo-7-phenyl-5-o-tolyl-azepan-1-yl}-acetamide]
7.60	–	CCc1ccccc1[C@@H]1C[C@H](c2ccccc2)N(CC(=O)NC(C)(C)C)C(=O)[C@H](NC(=O)Nc2cccc(C)c2)C1 [N-tert-Butyl-2-[(3R,5S,7R)-5-(2-ethyl-phenyl)-2-oxo-7-phenyl-3-(3-m-tolyl-ureido)-azepan-1-yl]-acetamide]
8.11	6.28	Cc1cccc(NC(=O)N[C@@H]2C[C@H](c3ccccc3C)C[C@H](c3ccccc3)N(CC(=O)NC(C)(C)C)C2=O)c1 [N-tert-Butyl-2-[(3R,5S,7R)-2-oxo-7-phenyl-5-o-tolyl-3-(3-m-tolyl-ureido)-azepan-1-yl]-acetamide]
7.42	–	CCc1cccc(NC(=O)N[C@@H]2C[C@H](c3ccccc3C)C[C@H](c3ccccc3)N(CC(=O)NC3(C)CCCCC3)C2=O)c1 [2-{(3R,5S,7R)-3-[3-(3-Ethyl-phenyl)-ureido]-2-oxo-7-phenyl-5-o-tolyl-azepan-1-yl}-N-(1-methyl-cyclohexyl)-acetamide]
6.87	–	Cc1cccc(NC(=O)N[C@@H]2C[C@H](c3ccccc3C)C[C@H](c3ccccc3)N(CC(=O)NC3(C)CCCCC3)C2=O)c1 [N-(1-Methyl-cyclohexyl)-2-[(3R,5S,7R)-2-oxo-7-phenyl-5-o-tolyl-3-(3-m-tolyl-ureido)-azepan-1-yl]-acetamide]
8.00	–	Cc1ccccc1[C@@H]1C[C@H](c2ccccc2)N(CC(=O)NC(C)(C)C)C(=O)[C@H](NC(=O)Nc2cccc([N+](=O)[O-])c2)C1 [N-tert-Butyl-2-{(3R,5S,7R)-3-[3-(3-nitro-phenyl)-ureido]-2-oxo-7-phenyl-5-o-tolyl-azepan-1-yl}-acetamide]
